In patent US9303020B2, “Compounds for the treatment of hepatitis C” (Bristol-Myers Squibb Company, priority 2012, dated 2016):

Tests used:
[1] = tested on: genotype 1b HCV replicon in Huh-7 cells; experiment: HCV replicon luciferase assay; format: cell-based, HCV genotype 1b (human hepatocyte derived cell line Huh-7); conditions: Hepatitis C virus, Huh-7, 72 h, Renilla luciferase, 3 days incubation
Description: The cell lines used to evaluate compounds consist of a human hepatocyte derived cell line (Huh-7) that constitutively expresses a genotype 1b HCV replicon containing a Renilla luciferase reporter gene. These cells were maintained in Dulbecco's modified Eagle medium (DMEM) containing 10% FBS, 100 U/mL penicillin/streptomycin and 1.0 mg/mL G418.
To evaluate compound efficacy, titrated compounds were transferred to sterile 384-well tissue culture treated plates, and the plates were seeded with HCV replicon cells (50 μL at a density of 2.4×10^3 cells/well) in DMEM containing 4% FBS (final DMSO concentration at 0.5%). After 3 days incubation at 37° C., cells were analyzed for Renilla Luciferase activity using the EnduRen substrate (Promega cat #E6485) according to the manufacturer's directions. Briefly, the EnduRen substrate was diluted in DMEM and then added to the plates to a final concentration of 7.5 μM. The plates were incubated for at least 1 h at 37° C. then read on a Viewlux Imager (PerkinElmer) using a luminescence program. The 50% effective concentration (EC50) was calculated using the four-parameter logistic formula noted above.

[2] = target: T1, NS5B protein of HCV, genotype 1b (Hepatitis C virus genotype 1b, UniProt Q9WMX2); experiment: HCV NS5B RdRp enzyme assay; format: biochemical; conditions: 7 nM NS5B enzyme, 4 hours at 30° C.
T1 construct: The protein was expressed with an 18 amino acid C-terminal truncation to enhance the solubility; made in house; host or cells: E. coli BL21(DE3)
T1 sequence (Q9WMX2 2420-2992): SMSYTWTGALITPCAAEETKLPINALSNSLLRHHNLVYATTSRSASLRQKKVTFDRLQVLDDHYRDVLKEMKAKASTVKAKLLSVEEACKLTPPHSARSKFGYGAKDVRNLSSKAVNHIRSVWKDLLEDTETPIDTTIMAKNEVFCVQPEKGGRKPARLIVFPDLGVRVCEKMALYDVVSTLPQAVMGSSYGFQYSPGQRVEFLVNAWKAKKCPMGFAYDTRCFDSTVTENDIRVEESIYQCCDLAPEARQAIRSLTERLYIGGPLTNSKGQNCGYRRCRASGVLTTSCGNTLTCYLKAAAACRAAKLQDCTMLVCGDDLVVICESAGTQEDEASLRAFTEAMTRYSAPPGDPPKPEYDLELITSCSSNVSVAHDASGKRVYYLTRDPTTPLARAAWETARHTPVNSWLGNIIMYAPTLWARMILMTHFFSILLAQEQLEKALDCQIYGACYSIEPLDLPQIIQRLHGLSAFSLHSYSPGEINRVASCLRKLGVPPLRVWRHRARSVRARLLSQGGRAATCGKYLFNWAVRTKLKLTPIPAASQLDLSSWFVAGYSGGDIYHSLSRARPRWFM
Description: The cDNA encoding the NS5B protein of HCV, genotype 1b, was cloned into the pET21a expression vector. The protein was expressed with an 18 amino acid C-terminal truncation to enhance the solubility. The E. coli competent cell line BL21(DE3) was used for expression of the protein. Cultures were grown at 37° C. for ˜4 hours until the cultures reached an optical density of 2.0 at 600 nm. The cultures were cooled to 20° C. and induced with 1 mM IPTG. Fresh ampicillin was added to a final concentration of 50 μg/mL and the cells were grown overnight at 20° C.
Cell pellets (3 L) were lysed for purification to yield 15-24 mgs of purified NS5B. […]
Reactions were allowed to proceed for 4 hours at 30° C. and terminated by the addition of 50 mM EDTA (10 μL). After incubating for at least 15 minutes, plates were read on an Amersham LEADseeker multimodality imaging system.
IC50 values for compounds were determined using ten different [I]. IC50 values were calculated from the inhibition using the four-parameter logistic formula y=A+((B−A)/(1+((C/x)^D))), where A and B denote minimal and maximal % inhibition, respectively, C is the IC50, D is hill slope and x represents compound concentration.

[3] = tested on: HCV; conditions: extended dosing of the combination regimens with interferon and ribavirin; cited from earlier work

SMILES	EC50 [1]	IC50 [2]	toxicity during extended dosing [3]
COc1cc(C)c(-c2ccc3oc(-c4ccc(F)cc4)c(-c4ncc[nH]4)c3c2F)cc1C(=O)NC1(c2ncccn2)CC1 [Example 1, 5-(4-fluoro-2-(4-fluorophenyl)-3-(1H-imidazol-2-yl)benzofuran-5-yl)-2-methoxy-4-methyl-N-(1-(pyrimidin-2-yl)cyclopropyl)benzamide]	0.03 µM	0.03 µM	
CCNc1cc2oc(-c3ccc(F)cc3)c(-c3ncc[nH]3)c2cc1-c1ccc(OC)c(C(=O)NC2(c3ncccn3)CC2)c1 [Example 2, 5-(6-(ethylamino)-2-(4-fluorophenyl)-3-(1H-imidazol-2-yl)benzofuran-5-yl)-2-methoxy-N-(1-(pyrimidin-2-yl)cyclopropyl)benzamide]	0.0072 µM		
CCN(c1cc2oc(-c3ccc(F)cc3)c(-c3ncc[nH]3)c2cc1-c1ccc(OC)c(C(=O)NC2(c3ncccn3)CC2)c1)S(C)(=O)=O [Example 3, 5-(6-(N-ethylmethylsulfonamido)-2-(4-fluorophenyl)-3-(1H-imidazol-2-yl)benzofuran-5-yl)-2-methoxy-N-(1-(pyrimidin-2-yl)cyclopropyl)benzamide]	0.009 µM		
CNC(=O)c1c(-c2ccc(F)cc2)oc2cc(N(CCO)S(C)(=O)=O)c(C3CC3)cc12 [HCV-796]			hepatic toxicity
